In article PMC2692205 (Chembiochem : a European journal of chemical biology, 2008):

Biological target: SaDUF62 (Salinispora arenicola, UniProt A8M783)
Experiment: biochemical

SaDUF62, sequence (A8M783 whole entry): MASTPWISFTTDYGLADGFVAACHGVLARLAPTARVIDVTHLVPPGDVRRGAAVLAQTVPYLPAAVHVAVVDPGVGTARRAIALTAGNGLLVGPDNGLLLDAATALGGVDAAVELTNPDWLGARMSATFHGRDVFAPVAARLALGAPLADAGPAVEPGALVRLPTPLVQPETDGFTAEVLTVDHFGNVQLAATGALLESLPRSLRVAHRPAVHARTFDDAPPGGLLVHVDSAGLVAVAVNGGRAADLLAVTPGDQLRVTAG

`Cl` [chloride] was tested, and the Ki was 1000 µM.
